Here are results for 2 compounds from patent US20040053234A1, “Polynucletides that control delta-6 desaturase genes and methods for identifying compounds for modulating delta-6 desaturase” (priority 2000, published 2004).

For series [1], the system named is hD6D-1 control region. The experiment in a line: Luciferase activity of HepG2 clones stably transfected with hD6D-1 control region-luciferase construct pGh4015.1. The format is cell-based, human. As for the experimental part: Stable transfection was performed using the HepG2 cell line, which was adapted to grow in tissue culture dishes treated with 0.1% gelatin. The day before transfection, the cells were plated into 60 mm tissue culture dishes, so that they were 85-95% confluent on the day of transfection. For each dish of cells to be transfected, 10 μg of plasmid DNA (pGh4015.1) along with 1 μg of the vector pRSV-NEO (ATCC# 37198), was diluted in 500 μl of Opti-MEM (GIBCO-BRL) without serum. For each dish of cells to be transfected, 10 μl of Lipofectamine 2000 reagent (GIBCO BRL) was diluted in 500 μl of Opti-MEM, and incubated at room temperature for 5 min. The diluted DNA was mixed with the diluted lipofectamine and incubated at room temperature for 20 min. The DNA-lipofectamine complexes (1 ml) were put directly into each dish of cells to be transfected and mixed gently by rocking the dish back and forth The cells were incubated at 37° C. in a CO2 incubator for 24 h Each transfected dish of cells was then passaged into two 150 mm tissue culture dishes. The following day, geneticin (GIBCO BRL) was added to the culture medium at a concentration of 800 μg/ml. The cells were kept in selection for 4 weeks. Clones were transferred into a 96-well plate (one clone per well) until they reached confluence. Subsequently, the clones were transferred to a 24-well plate before been tested for luciferase activity.
The luciferase assays were done using the Luciferase Assay System from Promega (Promega, Wis.). Briefly, the cells grown in a 24well plate, were washed with PBS (Ca^2+ and Mg^2+ free) and lysed with about 100 μl of 1× CCLR (Cell Culture Lysis Reagent, Promega). Twenty μl of cell lysate was dispensed into a luminometer tube. The tube was placed in the luminometer (Berthold #9707, Monolight 3010, PharMingen, San Diego, Calif.) and 100 μl of Luciferase Assay Reagent (Promega) was injected into the tube. The luminometer was programmed to perform a 3-second measurement delay followed by a 15-second measurement read for luciferase activity. The results were expressed in Relative Light Unit per 15 seconds (RLU/15s).
The HepG2 stable clone 19 and 72, were plated in a 24-well plate (one plate per clone) treated with 0.1% gelatin, containing α-MEM supplemented with 10% FBS (Fetal Bovine Serum) and 200 μg/ml of geneticin (all from GIBCO BRL). When the cells reached about 80% confluence, the culture medium was replace with Williams' medium E (GIBCO) containing insulin (1 μM), dexamethasone (1 nM) and 0.27% BSA (Bovine Serum Albumin) all from Sigma. Six wells for each plate were treated with DHA at a concentration of 0, 25, 50 and 100 μM. After an incubation time of 6, 24 and 48 h, the wells were washed with PBS and the cells lysed with 100 μl of 1× CCLR (Promega). The luciferase assays were performed using a single tube luminometer using the Luciferase Assay System from Promega as indicated above.

Series [2] is described as follows: Plasma phospholipid arachidonic acid content in streptozotocin-induced diabetic rats. It is filed as in vivo, rat. The method, then: Eighteen rats were injected with 75 mg STZ/kg bd wt to induce the diabetic state. After 4 days the blood glucose level in each of the STZ rats was checked. The blood sample was obtained from the tail vein. […] The diabetic rats were housed 2 per cage. After 2 weeks, approximately one half of the diabetic rats and control rats were sacrificed. After 7 weeks, the remaining diabetic and control rats were sacrificed. By sacrificing controls at the same time we eliminated any possible age effect when completing our data analysis. The rats were sacrificed by exsanguination and tissues were removed for fatty acid analyses. […]
The different lipid classes from the RBCs (phospholipids), plasma and liver (phospholipids, free fatty acids, triglycerides and cholesterol esters) were separated using neutral lipid thin-layer chromatography. […] Compounds were detected by spraying the plates with 2,7-dichlorofluorescein and the silica gel containing each of the lipid class bands was scraped from the plate and placed in screw cap test tubes.
Four ml of BF3-methanol was added to the scraped silica gel fractions or the dry cholesterol ester fraction and heated for 30 min at 90° C. […] The fatty acid methyl esters (FAME) were dissolved in HPLC grade hexane and analyzed by gas chromatography. […]

Series [3] concerns delta-6-desaturase. It is filed as in vivo, rat. Conditions: for D6D activity: hepatic microsomes. The method, then: As described in other Examples, female Wistar rats were intraperitoneally (i.p.) injected with 50 mg of streptozotocin per kg of body weight. Three days later, animals received a second dose of streptozotocin (25 mg/kg body weight). Two and 7 weeks after the onset of diabetes, non-fasted control and streptozotocin (blood glucose levels 21 to >33 mmoles/L) treated rats were put under light halothane (15% in mineral oil) anaesthesia and sacrificed by exsanguination between 9:00 and 10:00 a.m. Under these experimental conditions, variations in enzyme activity caused by circadian rhythm (Actis Dato et al., 1973, Lipids, 8: 1-6) can be avoided and a substantial (although submaximal) activity of liver desaturase can be obtained (Actis Dato et al., 1973, Lipids, 8: 1-6 and Inkpen et al., 1969, J. Lipid Res., 10: 277-282). Livers were quickly rinsed with cold 0.9% NaCl solution, weighed and minced with scissors. All procedures were performed at 4° C. unless otherwise specified. Microsomes were isolated by differential ultracentrifugation as previously described (de Antueno et al., 1994, Lipids, 29: 327-331). Briefly, livers were homogenized in a solution (1:3 w/v) containing 0.25 M sucrose, 62 mM potassium phosphate buffer (pH 7.0), 0.15 M KCl, 1.5 mM N-acetylcysteine, 5 mM MgCl2, and 0.1 mM EDTA using 4 strokes of a Potter-Elvehjem tissue homogenizer. […] The absence of mitochondrial contamination was enzymatically assessed as previously described (Kilberg M. S. and Christensen H. N., 1979, Biochemistry, 18: 1525-1530). The protein concentration was measured by the method of Lowry et al. with bovine serum albumin as the standard (Lowry et al., 1951, J. Biol. Chem., 193: 265-275).
(§1) The activities of delta-5 and delta-6 desaturases were determined by measuring the conversion of [1-^14C]20:3n-6 (dihomogamma-linolenic acid) to [1-^14C]20:4n-6 (arachidonic acid) and [1-^14C]18:2n-6 (linoleic acid) to [1-^14C]18:3n-6 (gamma-linolenic acid), respectively. […]
(§2) Radiolabeled fatty acid methyl esters (FAME) were analyzed as previously described (de Antueno et al., 1993, Lipids, 28: 285-290). […]

Series [4] relates to delta-5-desaturase. The experiment in a line: Hepatic delta-5-desaturase activity in streptozotocin treated rats. It is filed as in vivo, rat. Conditions: hepatic microsomes. The method, then: As described in other Examples, female Wistar rats were intraperitoneally (i.p.) injected with 50 mg of streptozotocin per kg of body weight. Three days later, animals received a second dose of streptozotocin (25 mg/kg body weight). Two and 7 weeks after the onset of diabetes, non-fasted control and streptozotocin (blood glucose levels 21 to >33 mmoles/L) treated rats were put under light halothane (15% in mineral oil) anaesthesia and sacrificed by exsanguination between 9:00 and 10:00 a.m. […] The absence of mitochondrial contamination was enzymatically assessed as previously described (Kilberg M. S. and Christensen H. N., 1979, Biochemistry, 18: 1525-1530). The protein concentration was measured by the method of Lowry et al. with bovine serum albumin as the standard (Lowry et al., 1951, J. Biol. Chem., 193: 265-275).
as §1, §2

Each structure is given as a SMILES string. Like-named read-outs stand apart in the source and are kept apart here. Marks after values point to notes of the source that are not given here.

As for `CC/C=C\C/C=C\C/C=C\C/C=C\C/C=C\C/C=C\CCC(=O)O` [DHA, docosahexaenoic acid], the Luciferase activity in series [1] (HepG2 clone 19, DHA 25 μM, 6 h) is reported as 3.91E+06 RLU/15 s; in series [1] (HepG2 clone 19, DHA 25 μM, 24 h), 8.33E+06 RLU/15 s; in series [1] (HepG2 clone 19, DHA 25 μM, 48 h), 1.35E+07 RLU/15 s; in series [1] (HepG2 clone 19, DHA 50 μM, 6 h) it was 3.96E+06 RLU/15 s; in series [1] (HepG2 clone 19, DHA 50 μM, 24 h), 6.32E+06 RLU/15 s; in series [1] (HepG2 clone 19, DHA 50 μM, 48 h) it was 8.73E+06 RLU/15 s. Also, the Luciferase activity in series [1] (HepG2 clone 19, DHA 100 μM, 6 h) is given as 2.11E+06 RLU/15 s; in series [1] (HepG2 clone 19, DHA 100 μM, 24 h) it was 3.87E+06 RLU/15 s; in series [1] (HepG2 clone 19, DHA 100 μM, 48 h) it was 4.16E+06 RLU/15 s; in series [1] (HepG2 clone 72, DHA 25 μM, 6 h), 8.27E+05 RLU/15 s; in series [1] (HepG2 clone 72, DHA 25 μM, 24 h) it was 2.66E+06 RLU/15 s; in series [1] (HepG2 clone 72, DHA 25 μM, 48 h) it was 3.68E+06 RLU/15 s. In addition, the Luciferase activity in series [1] (HepG2 clone 72, DHA 50 μM, 6 h) came out at 6.69E+05 RLU/15 s; in series [1] (HepG2 clone 72, DHA 50 μM, 24 h) it was 1.43E+06 RLU/15 s; in series [1] (HepG2 clone 72, DHA 50 μM, 48 h), 2.18E+06 RLU/15 s; in series [1] (HepG2 clone 72, DHA 100 μM, 6 h) it was 3.07E+05 RLU/15 s; in series [1] (HepG2 clone 72, DHA 100 μM, 24 h), 8.55E+05 RLU/15 s; in series [1] (HepG2 clone 72, DHA 100 μM, 48 h), 9.80E+05 RLU/15 s.

`CN(N=O)C(=O)N[C@H]1C(O)O[C@H](CO)[C@@H](O)[C@@H]1O` (stereo partly drawn) [STZ, 2-deoxy-2-[([methylnitroso-amino]carbonyl)amino]-D-glucopyranose]: the “Reduction of plasma phospholipid AA content” value in series [2] (2 week streptozotocin-induced diabetic rats) worked out at 31%; in series [2] (7 week streptozotocin-induced diabetic rats), 27%. Moreover, the figures for the D6D activity in series [3] (2 weeks after STZ treatment) and in series [3] (7 weeks after STZ treatment) were 125.4 ± 34^a pmol/mg microsomal protein/min and 102.8 ± 29^c pmol/mg microsomal protein/min, respectively. The “Reduction of delta-6-desaturase activity in hepatic microsomes compared to control rats” value in series [3] (streptozotocin diabetic rats) came out at 37%. Moreover, the figures for the D5D activity in series [4] (2 weeks after STZ treatment) and in series [4] (7 weeks after STZ treatment) were 195.6 ± 56^b pmol/mg microsomal protein/min and 129.7 ± 30^d pmol/mg microsomal protein/min, respectively.
